Data reported in ChEMBL document CHEMBL5052843, “Inhibitors of apol1 and methods of using same” (2020).

Tests used:
[1] = system: Trypanosoma brucei brucei; assay: Antitrypanosomal activity against Trypanosoma brucei brucei assessed as trypanosome lysis using recombinant APOL1 protein G1 variant and measured by Alamar blue based fluorescene assay; type: functional, organism-based
Apolipoprotein L1 = Apolipoprotein L1 (Homo sapiens, UniProt O14791); assay: Inhibition of APOL1 G1 variant in human HEK293-T-REx cells measured by Thallium assay; type: cell-based

SMILES	IC50 (Apolipoprotein L1)	IC50 [1]
O=C(CCc1c(-c2ccc(F)cc2)[nH]c2c(F)cc(F)cc12)N[C@@H]1C(=O)NC[C@@H]1O	< 0.25 µM	< 0.25 µM
N#Cc1ccc(-c2[nH]c3c(F)cc(F)cc3c2CCC(=O)N[C@H]2CCNC2=O)cc1	< 0.25 µM	< 0.25 µM
N#Cc1cc(F)cc2c(CCC(=O)N[C@@H]3C(=O)NC[C@H]3O)c(-c3ccc(F)cc3)[nH]c12	< 0.25 µM	< 0.25 µM
Cc1cccc2c(CCC(=O)N[C@@H]3C(=O)NC[C@H]3O)c(-c3ccccc3)[nH]c12	< 0.25 µM	
O=C(CCc1c(-c2ccc(F)cc2)[nH]c2c(F)cc(Br)cc12)N[C@H]1CCNC1=O	< 0.25 µM	< 0.25 µM
COc1cc(F)cc2c(CCC(=O)N[C@H]3CCNC3=O)c(-c3ccc(F)cc3)[nH]c12	0.25 µM	
O=C(CCc1c(-c2ccc(F)cc2)[nH]c2c(F)cc(Cl)cc12)N[C@H]1CCNC1=O	< 0.25 µM	
O=C(CCc1c(-c2ccccc2)[nH]c2c(F)cc(F)cc12)N[C@@H]1C(=O)NC[C@H]1O	< 0.25 µM	< 0.25 µM
COc1ccc2[nH]c(-c3ccc(F)cc3)c(CCC(=O)N[C@H]3CCNC3=O)c2c1	> 1 µM	
O=C(CCc1c(-c2ccccc2)[nH]c2c(F)cccc12)N[C@H]1CCNC1=O	0.25 µM	
CC(CC(=O)N[C@H]1CCNC1=O)c1c(-c2ccc(F)cc2)[nH]c2c(F)cc(F)cc12 (stereo not given in full)	> 1 µM	
O=C(N[C@H]1CCNC1=O)[C@H](O)Cc1c(-c2ccccc2)[nH]c2c(F)cc(F)cc12	> 1 µM	
O=C(CCc1c(-c2ccccc2)[nH]c2c(C3=CCOC3)cccc12)N[C@@H]1C(=O)NC[C@H]1O	> 1 µM	
O=C(CSc1c(-c2ccc(F)cc2)[nH]c2ccccc12)N[C@@H]1C(=O)NC[C@H]1O	< 0.25 µM	
O=C(CCc1c(-c2ccc(OC(F)F)cc2)[nH]c2ccccc12)N[C@@H]1C(=O)NC[C@H]1O	< 0.25 µM	
O=C(CCc1c(-c2ccc(F)cc2)[nH]c2c(F)cc(F)cc12)NC1CC2(CC2)NC1=O (stereo not given)	> 1 µM	
O=C(CCc1c(-c2ccc(OC(F)F)cc2)[nH]c2c(F)cc(F)cc12)N[C@H]1CCNC1=O	< 0.25 µM	< 0.25 µM
COc1cc(F)cc2c(CCC(=O)N[C@@H]3C(=O)NC[C@H]3O)c(-c3ccc(F)cc3)[nH]c12	< 0.25 µM	< 0.25 µM
O=C(CCc1c(-c2ccc(F)cc2)[nH]c2c(F)cc(F)cc12)N[C@H]1C[C@H](CO)NC1=O	> 1 µM	> 1 µM

SMILES	IC50 (Apolipoprotein L1)	IC50 [1]
O=C(CCc1c(-c2ccc(F)cc2)[nH]c2c(F)c(F)ccc12)N[C@H]1CCNC1=O	0.25 µM	
Cc1c(F)ccc2c(CCC(=O)N[C@@H]3C(=O)NC[C@H]3O)c(-c3ccccc3)[nH]c12	< 0.25 µM	
CC(C)c1cccc2c(CCC(=O)N[C@@H]3C(=O)NC[C@H]3O)c(-c3ccccc3)[nH]c12	0.25 µM	
C=C(C)c1cccc2c(CCC(=O)N[C@@H]3C(=O)NC[C@H]3O)c(-c3ccccc3)[nH]c12	0.25 µM	
CC1C[C@H](NC(=O)CCc2c(-c3ccc(F)cc3)[nH]c3c(F)cc(F)cc23)C(=O)N1 (stereo not given in full)	0.25 µM	0.25 µM
O=C(CCc1c(-c2ccc(F)cc2)[nH]c2c(Cl)cc(F)cc12)N[C@H]1CCNC1=O	< 0.25 µM	
Cc1ccc2[nH]c(-c3ccc(Br)cc3)c(CCC(=O)N[C@H]3CCNC3=O)c2c1	< 0.25 µM	< 0.25 µM
O=C(CCc1c(-c2ccc(F)cc2)[nH]c2c(F)cc(F)cc12)N[C@@H]1CCNC1=O	0.25 µM	< 0.25 µM
C[C@@H](Cc1c(-c2ccc(F)cc2)[nH]c2c(F)cc(F)cc12)C(=O)N[C@H]1CCNC1=O	> 1 µM	
O=C(CCc1c(-c2ccccc2)[nH]c2c(F)cc(F)cc12)N[C@H]1CCNC1=O	< 0.25 µM	
O=C(CCc1c(-c2ccccc2)[nH]c2c(Cl)cc(F)cc12)N[C@@H]1C(=O)NC[C@H]1O	< 0.25 µM	
O=C(CCc1c(-c2ccccc2)[nH]c2c(C3CC3)cccc12)N[C@@H]1C(=O)NC[C@H]1O	< 0.25 µM	
O=C(CCc1c(-c2ccc(F)cc2)[nH]c2c(F)cc(F)cc12)N[C@H]1C[C@@H](CO)NC1=O	> 1 µM	> 1 µM
O=C(CCc1c(-c2ccc(F)cc2)[nH]c2c(F)cc(Cl)cc12)N[C@@H]1C(=O)NC[C@H]1O	< 0.25 µM	< 0.25 µM
O=C1C[C@H](NC(=O)CCc2c(-c3ccc(F)cc3)[nH]c3c(F)cc(F)cc23)C(=O)N1	0.25 µM	0.25 µM
N#Cc1cc(F)c2[nH]c(-c3ccc(F)cc3)c(CCC(=O)N[C@H]3CCNC3=O)c2c1	> 1 µM	> 1 µM
O=C(CCc1c(-c2ccccc2)[nH]c2c(Cl)cccc12)N[C@@H]1C(=O)NC[C@H]1O	< 0.25 µM	
Cc1ccc(-c2[nH]c3c(F)cc(F)cc3c2CCC(=O)N[C@H]2CCNC2=O)cc1	< 0.25 µM	
COc1cccc2c(CCC(=O)N[C@H]3CCNC3=O)c(-c3ccc(F)cc3)[nH]c12	> 1 µM	

SMILES	IC50 (Apolipoprotein L1)	IC50 [1]
O=C(CCc1c(-c2ccc(F)cc2)[nH]c2ccc(F)cc12)N[C@H]1CCNC1=O	< 0.25 µM	< 0.25 µM
O=C(CCc1c(-c2ccc(F)cc2)[nH]c2c(F)cc(F)cc12)N[C@H]1CCNC1=O	< 0.25 µM	< 0.25 µM
O=C(CCc1c(-c2ccc(F)cc2)[nH]c2c(Cl)cc(F)cc12)N[C@@H]1C(=O)NC[C@H]1O	< 0.25 µM	< 0.25 µM
O=C1C[C@@H](NC(=O)CCc2c(-c3ccc(F)cc3)[nH]c3c(F)cc(F)cc23)C(=O)N1	0.25 µM	0.25 µM
O=C(CCc1c(-c2ccccc2)[nH]c2ccc(Cl)cc12)N[C@@H]1C(=O)NC[C@H]1O	< 0.25 µM	< 0.25 µM
C=Cc1cccc2c(CCC(=O)N[C@@H]3C(=O)NC[C@H]3O)c(-c3ccccc3)[nH]c12	< 0.25 µM	
O=C(CCc1c(-c2ccccc2)[nH]c2c(C3CCOC3)cccc12)N[C@@H]1C(=O)NC[C@H]1O (stereo not given in full)	0.25 µM	
O=C(CCc1c(-c2ccccc2)[nH]c2c(C(F)(F)F)cc(F)cc12)N[C@@H]1C(=O)NC[C@H]1O	< 0.25 µM	
CC(=O)O[C@@H]1CNC(=O)[C@H]1NC(=O)CCc1c(-c2ccc(F)cc2)[nH]c2c(F)cc(F)cc12	> 1 µM	
O=C(CCc1c(-c2ccc(F)cc2)[nH]c2c(F)cc(Cl)cc12)N[C@@H]1CCNC1=O	0.25 µM	
Cc1cc(F)cc2c(CCC(=O)N[C@@H]3C(=O)NC[C@H]3O)c(-c3ccc(F)cc3)[nH]c12	< 0.25 µM	< 0.25 µM
CC(C)(O)c1cccc2c(CCC(=O)N[C@@H]3C(=O)NC[C@H]3O)c(-c3ccccc3)[nH]c12	0.25 µM	
Cc1cc(F)c2[nH]c(-c3ccc(F)cc3)c(CCC(=O)N[C@@H]3C(=O)NC[C@H]3O)c2c1	< 0.25 µM	< 0.25 µM
CC1(NC(=O)CCc2c(-c3ccc(F)cc3)[nH]c3c(F)cc(F)cc23)CCNC1=O (stereo not given)	0.25 µM	< 0.25 µM
Cc1cc(F)cc2c(CCC(=O)N[C@H]3CCNC3=O)c(-c3ccc(F)cc3)[nH]c12	< 0.25 µM	
Cc1cc(F)c2[nH]c(-c3ccc(F)cc3)c(CCC(=O)N[C@H]3CCNC3=O)c2c1	0.25 µM	
Cc1ccc(-c2[nH]c3c(F)cc(F)cc3c2CCC(=O)N[C@@H]2CCNC2=O)cc1	< 0.25 µM	
N#Cc1cccc(-c2[nH]c3ccc(F)cc3c2CCC(=O)N[C@H]2CCNC2=O)c1	> 1 µM	
O=C(CCc1c(-c2ccc(F)cc2)[nH]c2ccc(F)cc12)N[C@@H]1C(=O)NC[C@H]1O	< 0.25 µM	< 0.25 µM

Further lines, with some results ahead:

IC50 (Apolipoprotein L1)	SMILES	IC50 [1]
< 0.25 µM	O=C(CCc1c(-c2ccc(F)cc2)[nH]c2c(F)c(F)c(F)cc12)N[C@@H]1C(=O)NC[C@H]1O	
> 1 µM	O=C(CCc1c(-c2ccc(F)cc2)[nH]c2cc(O)ccc12)N[C@H]1C(=O)NC[C@@H]1O	
> 1 µM	CC(CC(=O)N[C@@H]1C(=O)NC[C@H]1O)c1c(-c2ccc(F)cc2)[nH]c2c(F)cc(F)cc12 (stereo not given in full)	
0.25 µM	C[C@@H](Cc1c(-c2ccc(F)cc2)[nH]c2c(F)cc(F)cc12)C(=O)N[C@@H]1C(=O)NC[C@H]1O	
0.25 µM	O=C(CCc1c(-c2ccc(F)cc2)[nH]c2c(F)cc(F)cc12)N[C@H]1C(=O)NC[C@@H]1O	
> 1 µM	O=C(CCc1c(-c2ccc(F)cc2)[nH]c2c(F)cc(F)cc12)N[C@H]1C[C@@H](CF)NC1=O	
< 0.25 µM	O=C(CCc1c(-c2ccc(F)cc2)[nH]c2ccc(Cl)cc12)N[C@@H]1C(=O)NC[C@H]1O	
< 0.25 µM	Cc1c(F)ccc2c(CCC(=O)N[C@@H]3C(=O)NC[C@H]3O)c(-c3ccc(F)cc3)[nH]c12	
< 0.25 µM	O=C(CCc1c(-c2ccc(F)cc2)[nH]c2cc(F)c(F)cc12)N[C@@H]1C(=O)NC[C@H]1O	
> 1 µM	O=C(N[C@@H]1C(=O)NC[C@H]1O)[C@H](O)Cc1c(-c2ccc(F)cc2)[nH]c2c(F)cc(F)cc12	
0.25 µM	Cc1cc(F)ccc1-c1[nH]c2ccccc2c1CCC(=O)N[C@@H]1C(=O)NC[C@H]1O	
> 1 µM	C[C@H]1CNC(=O)[C@H]1NC(=O)CCc1c(-c2ccc(F)cc2)[nH]c2c(F)cc(F)cc12	
< 0.25 µM	Cc1ccc(-c2[nH]c3c(F)cc(F)cc3c2CCC(=O)N[C@@H]2C(=O)NC[C@H]2O)cc1	
0.25 µM	O=C(CCc1c(-c2ccc(F)cc2)[nH]c2ccccc12)N[C@H]1C(=O)NC[C@H]1O	
< 0.25 µM	Cc1cccc2c(CCC(=O)N[C@@H]3C(=O)NC[C@H]3O)c(-c3ccc(F)cc3)[nH]c12	
< 0.25 µM	O=C(CCc1c(-c2ccc(F)cc2)[nH]c2c(F)cc(OC(F)F)cc12)N[C@@H]1C(=O)NC[C@H]1O	
> 1 µM	O=C(CCc1c(-c2ccc(F)cc2)[nH]c2c(F)cc(F)cc12)N[C@H]1C[C@H](CF)NC1=O	
> 1 µM	O=C(CCc1c(-c2ccc(F)cc2)[nH]c2ccccc12)N[C@H]1C(=O)NC[C@@H]1O	
> 1 µM	O=C1NC[C@@H](O)[C@@H]1NC(=O)[C@@H](O)Cc1c(-c2ccc(F)cc2)[nH]c2c(F)cc(F)cc12	
> 1 µM	O=C(CCc1c(-c2ccc(F)cc2)[nH]c2ccccc12)N[C@@H]1C(=O)NC[C@@H]1O	
0.25 µM	O=C(CCc1c(-c2ccc(F)cc2)[nH]c2c(F)cc(F)cc12)N[C@H]1C(=O)NC[C@H]1O	
< 0.25 µM	O=C(CCc1c(-c2ccc(Cl)cc2)[nH]c2c(Cl)cccc12)N[C@@H]1C(=O)NC[C@H]1O	
< 0.25 µM	O=C(CCc1c(-c2ccc(F)cc2)[nH]c2c(C(F)F)cc(F)cc12)N[C@@H]1C(=O)NC[C@H]1O	
< 0.25 µM	O=C(CCc1c(-c2ccc(F)cc2)[nH]c2c(C(F)(F)F)cccc12)N[C@@H]1C(=O)NC[C@H]1O	
